From patent US12636275B2, “Pharmaceutical use of ketoamide-based compound” (Shanghai Institute of Materia Medica, Chinese Academy of …, priority 2020, dated 2026)
Where two headings read alike, the source gives them in different places.

What was measured:
[1] = system: 2019 novel coronavirus (2019-nCov); assay: Inhibitory activity on replication of 2019 novel coronavirus (cytopathic effect, MTS, RD cells); type: cell-based; settings: for virus inhibitory activity (in words): CQ as positive control, different concentration gradients; for EC50: Severe acute respiratory syndrome coronavirus 2, RD, read-out: EC50, inhibition of 2019-nCoV virus replication
human cathepsin L = human cathepsin L (Homo sapiens, UniProt P07711); assay: Inhibitory activity against human cathepsin L (FRET, Z-Phe-Arg-AMC substrate); type: biochemical; settings: pH 5.5, 25° C.
Method: To determine the inhibitory activity of the compound against human cathepsin L (CatL): the enzyme level inhibitory activity against cathepsin L was determined by fluorescence resonance energy transfer (FRET) technique. In a 96-well plate, 10 μL buffer (50 mM CH3COONa, pH 5.5, 1 mM DTT, 2 mM EDTA) was added to each well, while 0.2 μL of compound (final concentrations were 100 nM, 10 nM, 1 nM, 0.1 nM and 0.01 nM, respectively) and 10 μL cathepsin L were added, and incubated at 25° C. for 15 min. Then 10 μL fluorescent substrate (Z-Phe-Arg-AMC, final concentration was 20 μM) diluted with buffer was added. The fluorescence parameters were determined by Tecan Infinite 200pro fluorescence spectrophotometer. The excitation wavelength and emission wavelength were 360 nm and 465 nm respectively, kept at 25° C., and the data were read after 30 min. A negative control was used, in which no compound was added to the control, and the rest was the same.

2019-nCoV 3CL protease = target: T1, 2019-nCoV 3CL protease (Severe acute respiratory syndrome coronavirus 2, UniProt P0DTD1); assay: Inhibitory activity against 3CL protease of 2019 novel coronavirus (FRET); type: biochemical
T1 construct: against 3CL protease of 2019 novel coronavirus (2019-nCoV 3CL^pro)
Method: To determine the inhibitory activity of the compound against 3CL protease of 2019 novel coronavirus (2019-nCoV 3CL^pro): the enzyme level inhibitory activity of inhibitors against 3CL protease was determined by fluorescence resonance energy transfer (FRET) technology. In a 96-well plate, 27.5 μL of buffer (20 mM Tris, 100 mM NaCl, 1 mM EDTA, pH 7.4) was added to each well, 2.5 μL compounds ([…], respectively) and 5 μL […] (final concentration was 3 μM) were added at the same time. Incubated at 37° C. for 15 min. Then 15 μL fluorescent substrate diluted with buffer (final concentration was 20 μM) was added. The fluorescence parameters were determined by Ge n5 fluorescence spectrophotometer. The excitation wavelength and emission wavelength were 340 nm and 490 nm respectively, kept at 37° C., and the data were read after 10 min. A negative control was used, in which no compound was added to the control, and the rest was the same.

[2] = Toxicity test in SD rats with repeated intravenous administration; type: in vivo
Text: The purpose of this experiment is to observe the potential toxicity of SD rats after intravenous DC406009 for 7 consecutive days and to determine the possible toxic target organs. To provide non-toxic dose and/or toxic dose for the subsequent toxicity test design and clinical trial protocol design. To assess the level of drug exposure in vivo, a toxicokinetic evaluation is accompanied.
36 SD rats were divided into 8 groups (3 in toxicity test group/gender/group, a total of 5 groups; 1 in toxic satellite group/gender/group, 3 groups), intravenous injection of solvent (5% DMSO/5% EtOH/40% PEG300/50% NaCl), 0.9% sodium chloride injection and DC406009 (5, 15, 30 mg/kg/day), once a day for 7 consecutive days, all animals were euthanized on Day 8. During the test, the following indicators were evaluated: toxicology (only samples were collected), clinical observation, body weight, food consumption, clinical pathology (hematology, hemagglutination, plasma biochemistry) and anatomical macroscopic morphological observation.

[3] = system: 2019 novel coronavirus (2019-nCov); settings: stated for positive control; read-out: EC50, inhibition of 2019-nCoV virus replication (positive compound CQ); cited from earlier work

Chain of human cathepsin L (P07711 114-333): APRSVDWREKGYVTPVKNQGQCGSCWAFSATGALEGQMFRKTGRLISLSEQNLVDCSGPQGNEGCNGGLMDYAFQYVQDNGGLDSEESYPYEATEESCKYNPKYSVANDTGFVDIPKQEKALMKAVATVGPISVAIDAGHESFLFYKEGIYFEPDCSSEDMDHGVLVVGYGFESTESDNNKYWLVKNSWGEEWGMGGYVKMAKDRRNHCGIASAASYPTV

Compound: O=C(NCc1ccccc1)C(=O)[C@H](C[C@@H]1CCCNC1=O)NC(=O)[C@H](CC1CCCCC1)NC(=O)c1cc2ccccc2o1 [Example A13, N—((S)-1-(((S)-4-(benzylamino)-3,4-dione-1-((S)-2-oxopiperidin-3-yl)but-2-yl)amino)-3-cyclohexyl-1-oxopropan-2-yl)-benzofuran-2-carboxamide]
- virus inhibitory activity (in words) [1]: excellent virus inhibitory activity
- EC50 [1]: 9240 nM
- IC50 (human cathepsin L): 1.36 ± 0.04 nM
- IC50 (2019-nCoV 3CL protease; FRET, 37° C., substrate 20 μM): 2.4 µM

Compound: O=C(NCc1ccccc1)C(=O)[C@H](C[C@@H]1CCCNC1=O)NC(=O)[C@H](CC1CCCCC1)NC(=O)c1cc2ccccc2[nH]1 [Example A5, N—((S)-1-(((S)-4-(benzylamino)-3,4-dione-1-((S)-2-oxopiperidin-3-yl)but-2-yl)amino)-3-cyclohexyl-1-oxopropan-2-yl)-1H-indole-2-carboxamide]
- IC50 (human cathepsin L): 0.45 ± 0.02 nM

Compound: O=C(NCc1ccccc1)C(=O)[C@H](C[C@@H]1CCCNC1=O)NC(=O)[C@H](Cc1cccc(F)c1)NC(=O)c1cc2ccccc2o1 [Example A284]
- IC50 (human cathepsin L): 0.45 ± 0.01 nM

Compound: O=C(NCc1ccccc1)C(=O)[C@H](C[C@@H]1CCCNC1=O)NC(=O)[C@H](Cc1ccc(F)cc1)NC(=O)c1cc2ccccc2o1 [Example A289]
- virus inhibitory activity (in words) [1]: excellent virus inhibitory activity
- virus inhibitory activity (in words) ([1]; listed as 6009): better than that of positive control CQ
- EC50 [1]: 296 nM
- tolerability (in words) ([2]; SD rats, 5, 15, 30 mg/kg/day intravenously once a day for 7 consecutive days): animals can tolerate
- MTD at 7 days ([2]; both sexes, SD, rat, in vivo, iv): > 30 mg/kg/day
- IC50 (human cathepsin L): 0.66 ± 0.008 nM
- inhibition at 1 µM (2019-nCoV 3CL protease; compound 1 uM, read-out: 1 uM inhibition rate): 13.5%
- inhibition at 10 µM (2019-nCoV 3CL protease; compound 10 uM, read-out: 10 uM inhibition rate): 40.8%

Compound: O=C(NC1CC1)C(=O)[C@H](C[C@@H]1CCCNC1=O)NC(=O)[C@H](CC1CCCCC1)NC(=O)c1cc2ccccc2o1 [Example A309, N—((S)-1-(((S)-4-(cyclopropylamino)-3,4-dione-1-((S)-2-oxopiperidin-3-yl)but-2-yl)amino)-3-cyclohexyl-1-oxopropan-2-yl)-benzofuran-2-carboxamide]
- IC50 (human cathepsin L): 0.63 ± 0.08 nM

Compound: O=C(NCc1ccccc1)C(=O)[C@H](C[C@@H]1CCCNC1=O)NC(=O)[C@H](Cc1ccc(F)c(F)c1)NC(=O)c1cc2ccccc2o1 [Example A290]
- IC50 (human cathepsin L): 0.47 ± 0.06 nM

Compound: CCN(CC)CCCC(C)Nc1ccnc2cc(Cl)ccc12 (stereo not drawn) [CQ]
- EC50 [3]: 1130 nM

Compound: O=C(NC1CC1)C(=O)[C@H](C[C@@H]1CCCNC1=O)NC(=O)[C@H](Cc1ccc(F)cc1)NC(=O)c1cc2ccccc2o1 [Example A310, N—((S)-1-(((S)-4-(cyclopropylamino)-3,4-dione-1-((S)-2-oxopiperidin-3-yl)but-2-yl)amino)-3-(4-fluorophenyl)-1-oxopropan-2-yl)-benzofuran-2-carboxamide]
- IC50 (human cathepsin L): 0.57 ± 0.01 nM
